Reference: ChEMBL document CHEMBL1909294, “Translating clinical findings into knowledge in drug safety evaluation--drug induced liver injury prediction system (DILIps)” (PLoS Comput Biol, 2011)

Columns and labels:
[1] = test system: Hepatotoxicity;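 on HepSE Combined Scores: combined hepatic side effect score as listed in the training data of the Drug Induced Liver Injury Prediction System (DILIps)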;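 on HepSE cholelithiasis: hepatic side effect score for cholelithiasis, drawn from the DILIps training data for predicting drug-induced liver injury; call rule not given here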;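 on HepSE cirrhosis: cirrhosis hepatic side effect score taken from the DILIps (drug-induced liver injury prediction) training set; call rule not given here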; on HepSE hepatic failure: call rule not given here;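 on HepSE hepatic necrosis: score of hepatic side effects for hepatic necrosis, drawn from the training data of DILIps, a prediction system for drug-induced liver injury; call rule not given here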;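 on HepSE hepatomegaly: hepatic side effect score for hepatomegaly, taken from the training set of the DILIps drug-induced liver injury prediction system; call rule not given here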;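 on HepSE liver function tests abnormal: hepatic side effect score taken from the DILIps (drug-induced liver injury prediction system) training data, here covering abnormal liver function test findings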
[2] = test system: Hepatotoxicity; remark: listed apart in the source;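 on HepSE cholelithiasis: hepatic side effect score for cholelithiasis, drawn from the DILIps training data for predicting drug-induced liver injury; call rule not given here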;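 on HepSE cirrhosis: cirrhosis hepatic side effect score taken from the DILIps (drug-induced liver injury prediction) training set; call rule not given here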; on HepSE hepatic failure: call rule not given here;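 on HepSE hepatic necrosis: score of hepatic side effects for hepatic necrosis, drawn from the training data of DILIps, a prediction system for drug-induced liver injury; call rule not given here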;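 on HepSE hepatomegaly: hepatic side effect score for hepatomegaly, taken from the training set of the DILIps drug-induced liver injury prediction system; call rule not given here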;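 on HepSE liver function tests abnormal: hepatic side effect score taken from the DILIps (drug-induced liver injury prediction system) training data, here covering abnormal liver function test findings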
[3] = test system: Hepatotoxicity; remark: listed apart in the source;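 on HepSE cholelithiasis: hepatic side effect score for cholelithiasis, drawn from the DILIps training data for predicting drug-induced liver injury; call rule not given here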;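 on HepSE cirrhosis: cirrhosis hepatic side effect score taken from the DILIps (drug-induced liver injury prediction) training set; call rule not given here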; on HepSE hepatic failure: call rule not given here;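 on HepSE hepatic necrosis: score of hepatic side effects for hepatic necrosis, drawn from the training data of DILIps, a prediction system for drug-induced liver injury; call rule not given here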;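 on HepSE hepatomegaly: hepatic side effect score for hepatomegaly, taken from the training set of the DILIps drug-induced liver injury prediction system; call rule not given here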;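 on HepSE liver function tests abnormal: hepatic side effect score taken from the DILIps (drug-induced liver injury prediction system) training data, here covering abnormal liver function test findings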
[4] = test system: Hepatotoxicity; remark: listed apart in the source;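 on HepSE cholelithiasis: hepatic side effect score for cholelithiasis, drawn from the DILIps training data for predicting drug-induced liver injury; call rule not given here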;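 on HepSE cirrhosis: cirrhosis hepatic side effect score taken from the DILIps (drug-induced liver injury prediction) training set; call rule not given here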; on HepSE hepatic failure: call rule not given here;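 on HepSE hepatic necrosis: score of hepatic side effects for hepatic necrosis, drawn from the training data of DILIps, a prediction system for drug-induced liver injury; call rule not given here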;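 on HepSE hepatomegaly: hepatic side effect score for hepatomegaly, taken from the training set of the DILIps drug-induced liver injury prediction system; call rule not given here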;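 on HepSE liver function tests abnormal: hepatic side effect score taken from the DILIps (drug-induced liver injury prediction system) training data, here covering abnormal liver function test findings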
[5] = test system: Hepatotoxicity; remark: listed apart in the source; on HepSE hepatic failure: call rule not given here
[6] = test system: Hepatotoxicity; remark: listed apart in the source; on HepSE hepatic failure: call rule not given here
[7] = test system: Hepatotoxicity; remark: listed apart in the source
[8] = test system: Hepatotoxicity; remark: listed apart in the source
[9] = test system: Hepatotoxicity; remark: listed apart in the source
[10] = test system: Hepatotoxicity; remark: listed apart in the source
[11] = test system: Hepatotoxicity; remark: listed apart in the source
[12] = test system: Hepatotoxicity; remark: listed apart in the source
[13] = test system: Hepatotoxicity; remark: listed apart in the source
[14] = test system: Hepatotoxicity; remark: listed apart in the source

Row | Compound | HepSE_hepatic failure [1] | HepSE_hepatic necrosis [2] | HepSE_bilirubinemia [3] | HepSE_cholelithiasis [4] | HepSE_hepatomegaly [5] | HepSE_hepatitis [6] | HepSE_liver function tests abnormal [7] | HepSE_cirrhosis [8] | HepSE_liver fatty [9] | HepSE_Combined Scores [10] | HepSE_elevated liver function tests [11] | HepSE_liver disease [12] | HepSE_jaundice [13] | HepSE_cholecystitis [14]
1 | C[N+]1(C)CCCC(OC(=O)C(O)(c2ccccc2)c2ccccc2)C1.[Br-] (configuration not stated) [MEPENZOLATE BROMIDE] | 0 | 0 | 0 | 0 | 0 | 0 | 0 | 0 | 0 | 0 | 0 | 0 | 0 | 0
2 | CCN(CC)CCCC(C)Nc1ccnc2cc(Cl)ccc12 (configuration not stated) [CHLOROQUINE] | 0 | 0 | 0 | 0 | 0 | 0 | 0 | 0 | 0 | 0 | 0 | 0 | 0 | 0
3 | CCOC(=O)[C@H](CCc1ccccc1)N[C@H]1CCc2ccccc2N(CC(=O)O)C1=O [BENAZEPRIL] | 0 | 0 | 0 | 0 | 0 | 1 | 0 | 0 | 0 | 2 | 0 | 0 | 1 | 0
4 | C[C@H](CS)C(=O)N1CCC[C@H]1C(=O)O [CAPTOPRIL] | 0 | 0 | 0 | 0 | 0 | 1 | 0 | 0 | 0 | 2 | 0 | 0 | 1 | 0
5 | CC1(C)O[C@@H]2[C@@H](CO[C@@]3(COS(N)(=O)=O)OC(C)(C)O[C@@H]23)O1 [TOPIRAMATE] | 1 | 0 | 0 | 0 | 0 | 1 | 0 | 0 | 0 | 2 | 0 | 0 | 0 | 0
6 | CCc1nc(N)nc(N)c1-c1ccc(Cl)cc1 [PYRIMETHAMINE] | 0 | 0 | 0 | 0 | 0 | 0 | 0 | 0 | 0 | 0 | 0 | 0 | 0 | 0
7 | NYSTATIN | 0 | 0 | 0 | 0 | 0 | 0 | 0 | 0 | 0 | 0 | 0 | 0 | 0 | 0
8 | COC(=O)C1=C(C)NC(C)=C(C(=O)OCCN(C)Cc2ccccc2)C1c1cccc([N+](=O)[O-])c1 (configuration not stated) [NICARDIPINE] | 0 | 0 | 0 | 0 | 0 | 0 | 0 | 0 | 0 | 0 | 0 | 0 | 0 | 0
9 | CSCC[C@H](NC(=O)[C@H](Cc1ccc(OS(=O)(=O)O)cc1)NC(=O)[C@@H](N)CC(=O)O)C(=O)NCC(=O)N[C@@H](Cc1c[nH]c2ccccc12)C(=O)N[C@@H](CCSC)C(=O)N[C@@H](CC(=O)O)C(=O)N[C@@H](Cc1ccccc1)C(N)=O [SINCALIDE] | 0 | 0 | 0 | 0 | 0 | 0 | 0 | 0 | 0 | 0 | 0 | 0 | 0 | 0
10 | CN(C)CCOC(=O)C(c1ccccc1)C1(O)CCCC1 (configuration not stated) [CYCLOPENTOLATE] | 0 | 0 | 0 | 0 | 0 | 0 | 0 | 0 | 0 | 0 | 0 | 0 | 0 | 0
11 | CC(C)(C)NC(=O)[C@@H]1CN(Cc2cccnc2)CCN1C[C@@H](O)C[C@@H](Cc1ccccc1)C(=O)N[C@H]1c2ccccc2C[C@H]1O.O | 1 | 0 | 1 | 0 | 0 | 1 | 0 | 0 | 0 | 4 | 0 | 0 | 1 | 0
12 | CC(=O)N[C@H]1[C@H]([C@H](O)[C@H](O)CO)OC(C(=O)O)=C[C@@H]1N=C(N)N [ZANAMIVIR] | 0 | 0 | 0 | 0 | 0 | 0 | 0 | 0 | 0 | 0 | 0 | 0 | 0 | 0
13 | COC(=O)[C@H]1[C@H]2C[C@@H]3c4[nH]c5cc(OC)ccc5c4CCN3C[C@H]2C[C@@H](OC(=O)c2cc(OC)c(OC)c(OC)c2)[C@@H]1OC [RESERPINE] | 0 | 0 | 0 | 0 | 0 | 0 | 0 | 0 | 0 | 0 | 0 | 0 | 0 | 0
